Measurements taken from patent US9758559B2, “Short peptides derived from VDAC1, compositions and methods of use thereof” (B.G. NEGEV TECHNOLOGIES AND APPLICATIONS LTD., AT …, priority 2013, dated 2017).
Where a SMILES comes first, the peptide text is derived from it. [ ]: non-standard residue; d: D form.

Key:
[1] = biological target: T1, Mitochondria-Bound Hexokinase 1 (HK-1) (Rattus norvegicus, UniProt P05708); test: Detachment of mitochondria-bound HK-1-GFP in HeLa cells (confocal microscopy); assay type: cell-based; settings: HeLa cells expressing HK-1-GFP, 6 h
T1 construct: expressed in transfected cells; host or cells: HeLa cells
T1 sequence (P05708 1-918): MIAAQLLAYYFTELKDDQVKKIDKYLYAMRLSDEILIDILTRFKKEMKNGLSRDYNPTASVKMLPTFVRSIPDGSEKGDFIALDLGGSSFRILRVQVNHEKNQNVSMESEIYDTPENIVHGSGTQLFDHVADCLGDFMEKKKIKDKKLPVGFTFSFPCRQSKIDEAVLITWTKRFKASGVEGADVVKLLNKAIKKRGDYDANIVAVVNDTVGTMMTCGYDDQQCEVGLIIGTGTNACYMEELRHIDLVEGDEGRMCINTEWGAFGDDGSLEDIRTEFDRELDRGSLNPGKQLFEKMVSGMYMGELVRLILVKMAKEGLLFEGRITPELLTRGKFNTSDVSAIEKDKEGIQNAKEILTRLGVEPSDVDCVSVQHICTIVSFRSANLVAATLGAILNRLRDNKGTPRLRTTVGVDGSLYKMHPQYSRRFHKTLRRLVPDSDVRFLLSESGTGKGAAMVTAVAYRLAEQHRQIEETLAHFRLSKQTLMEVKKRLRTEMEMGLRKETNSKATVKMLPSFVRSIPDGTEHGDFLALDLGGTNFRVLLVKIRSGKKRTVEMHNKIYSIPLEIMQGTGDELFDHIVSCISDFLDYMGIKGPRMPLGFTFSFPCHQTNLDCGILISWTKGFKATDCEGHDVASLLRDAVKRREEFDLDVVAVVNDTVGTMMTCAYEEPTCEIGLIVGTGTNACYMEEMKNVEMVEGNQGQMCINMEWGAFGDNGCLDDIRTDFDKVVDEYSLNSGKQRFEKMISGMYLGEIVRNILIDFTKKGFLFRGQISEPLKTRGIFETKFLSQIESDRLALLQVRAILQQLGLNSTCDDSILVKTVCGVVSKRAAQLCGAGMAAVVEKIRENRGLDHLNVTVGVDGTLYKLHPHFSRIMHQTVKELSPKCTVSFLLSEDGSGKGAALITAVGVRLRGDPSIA
Protocol: To visualize HK detachment induced by the D-Δ(1-14) N-terminal-Antp peptide, HeLa cells (3×10^5) were grown on Poly-D-Lysine (PDL)-coated coverslips in a 60 mm dish and transfected with pEGFP-HK-I or with plasmid pEGFP. HK-I-GFP fusion protein, in which GFP was connected to the HK-I C-terminal (pEGFP-HK-I), was constructed using an EcoR1 restriction site to introduce GFP into the 3′ (at the stop codon) of HK1 in plasmid pcDNA3.1 by site-directed mutagenesis with overlapping PCR amplification, using the following primers: 5′-[…]-3; (forward, SEQ ID NO:24) and 5′-[…]-3; (reverse, SEQ ID NO:25).
After 48 h, cells were incubated for 6 h with a serum-free medium containing 0.4% DMSO or with the indicated concentration of D-Δ(1-14) N-Ter-Antp peptide. Cells were washed with PBS, fixed for 20 min with 4% paraformaldehyde prepared in PBS, rinsed for 30 min in PBS and cell imaging was carried out by confocal microscopy (Olympus 1×81).

[2] = system: Human primary glioblastoma cells (U-87); test: Cell death of U-87 cells, PI staining and flow cytometry; assay type: cell-based; settings: 6 h, serum-free medium, PI-positive cells; read-out: IC50, cell death, U87
Protocol: The efficacy of the peptide comprising amino acids […] of the N-terminal domain of VDAC1, synthesized with D-amino acids (all D-stereomeric peptide) conjugated to the Antp sequence also synthesized from D-amino acids as a CPP (D-Δ(1-14) N-Ter-Antp, SEQ ID NO:9) was further examined for its activity of inducing cell death with brain tumor derived cell lines. Human primary glioblastoma cells (U-87), human neuroblastoma cells (SH-SY5Y) and rat glioblastoma cells (C6) were incubated (4×10^5 cells) for 6 h in a serum-free-medium containing different concentrations of D-Δ1-14N-Ter-Antp (SEQ ID NO:9). The previously disclosed LP4 peptide conjugated to Tf (Tf-D-LP4 peptide, SEQ ID NO:20) was used as a reference of activity. At the end of the incubation time the cells were stained with PI and the level of cell death, reflected by the percentage of PI-positive cells, was determined by flow cytometry.

CLL-derived lymphocytes = test: Cell death of CLL-derived lymphocytes (PBMCs of CLL patients), PI staining and FACS; assay type: cell-based, human; settings: 90 min incubation, PI staining, FACS, read-out: IC50, induction of cell death, CLL
Protocol: PBMCs were isolated from venous blood of the CLL patients by Ficoll-Paque PLUS (GE Healthcare, Israel) density gradient centrifugation, as follows. Venous blood (10-20 ml) was drawn from CLL patients with satisfying diagnostic criteria for CLL or from normal adult donors. Blood was collected into heparin tubes and was diluted 1:1 with balance solution composed of two stock solutions, A (1% D-glucose, 50 mM CaCl2, 0.98 mM MgCl2, 5.4 mM KCl and 0.145 M Tris-HCl, pH 7.6) and B (0.14 M NaCl) in a 1:9 ratio. The resulting mix was carefully layered on Ficoll-Paque Plus (10 ml of diluted blood:15 ml Ficoll) in 50 ml conical tubes. The tubes were centrifuged at 400×g (with minimal acceleration and deceleration) and 18-20° C. for 40 min. […] Cells were counted by a Countess Automated Cell Counter (Invitrogen).
PBMCs (4×10^5 or 8×10^5 cells/sample) were incubated in 200 μl serum-free medium with the examined peptide for 90 min at room temperature and centrifuged (500×g, 5 min) Cell death was analyzed by PI staining and flow cytometer (Beckton-Dickinson) and BD Cell Quest Pro software. Apoptotic cell death was also analyzed by PI and annexin V-FITC staining (Zaid H et al. 2005. 12:751-760), and by acridine orange and ethidium bromide staining and confocal microscopy (Olympus 1×81). […]

CC[C@@H](C)[C@@H](NC(=O)[C@@H](CCCCN)NC(=O)[C@H](NC(=O)[C@@H](CCC(N)=O)NC(=O)[C@@H](CCCNC(=N)N)NC(=O)[C@@H](CC(C)C)NC(=O)CNC(=O)[C@@H](Cc1ccccc1)NC(=O)CNC(=O)[C@@H](Cc1ccc(O)cc1)NC(=O)CNC(=O)[C@@H](CCCCN)NC(=O)[C@H](NC(=O)[C@@H](Cc1ccccc1)NC(=O)[C@H](NC(=O)[C@@H](CC(=O)O)NC(=O)[C@H](N)CCCNC(=N)N)C(C)C)[C@H](C)O)[C@H](C)CC)C(=O)N[C@H](Cc1c[nH]c2ccccc12)C(=O)N[C@H](Cc1ccccc1)C(=O)N[C@H](CCC(N)=O)C(=O)N[C@H](CC(N)=O)C(=O)N[C@H](CCCNC(=N)N)C(=O)N[C@H](CCCNC(=N)N)C(=O)N[C@H](CCSC)C(=O)N[C@H](CCCCN)C(=O)N[C@H](Cc1c[nH]c2ccccc12)C(=O)N[C@H](CCCCN)C(=O)N[C@H](CCCCN)C(=O)O [D-Δ(1-14) N-Ter-Antp, ALL D-RDVFTKGYGFGL RQIKIWFQNRRMKWKK] (H-[dR][dD][dV][dF][dT][dK]G[dY]G[dF]G[dL][dR][dQ][dI][dK][dI][dW][dF][dQ][dN][dR][dR][dM][dK][dW][dK][dK]-OH)
HK-1-GFP detachment from the mitochondria [1]: diffusion of HK-1-GFP out into the cytosol is observed | IC50 [2]: 3750 nM | IC50 (CLL-derived lymphocytes): 1300 ± 100 nM
